# Data as given in patent publication US20190085024A1, “Alpha-Ketoamide Inhibitors Of Cysteine Proteases” (Phelix Therapeutics, priority 2017, published 2019).
# *1 amine or outer side, *2 acyl side, *3 side chain or, on linkers, in order; H or OH if unused. Where a SMILES comes first, the peptide text is derived from it. [ ]: non-standard residue; d: D form. The star is where a group is joined. 2Nal = N[CH](Cc1ccc2ccccc2c1)C(=O)O; X2 = C=CCOCC(N[*:1])C(=O)C(=O)[*:2]; Ser(allyl) = C=CCOC[CH](N)C(=O)O; PhAc = O=C(Cc1ccccc1)*; Allyl = C=CC*
# What was measured:
# [1] = target: Cathepsin L (Homo sapiens, UniProt P07711); assay: Cathepsin L enzyme assay; format: biochemical; details: Ki by Morrison equation; pH 5.5, substrate Z-Phe-Arg-Amc; read-out: Cat L
# Source text: Two wells contained DMSO only for controls.
# Velocity was converted to μM/sec.
# [2] = target: Cathepsin B (Homo sapiens, UniProt P07858); assay: Cathepsin B enzyme assay; details: Cat B (μM), Ki by Morrison equation; pH 6.0, substrate Z-Phe-Arg-Amc
# [3] = test system: MERS WT; assay: microbe, parasite or virus in culture; format: cell-based; details: Middle East respiratory syndrome-related coronavirus, read-out: MERS WT (μM)
# [4] = test system: EBOV WT (Ebola Wild Type); assay: microbe, parasite or virus in culture; format: cell-based; details: Zaire ebolavirus, read-out: EBOV WT (μM) (Ebola Wild Type)
# [5] = target: Calpain; assay: Calpain enzyme assay; format: biochemical; details: Ki by Morrison equation; pH 7.5, 5 mM CaCl2
# [6] = target: Cat S (Homo sapiens, UniProt P25774); assay: Cat S inhibition; format: biochemical
# [7] = target: T1, Cat K (Homo sapiens, UniProt P43235); assay: Cat K inhibition; format: biochemical
# T1 sequence (P43235 115-329): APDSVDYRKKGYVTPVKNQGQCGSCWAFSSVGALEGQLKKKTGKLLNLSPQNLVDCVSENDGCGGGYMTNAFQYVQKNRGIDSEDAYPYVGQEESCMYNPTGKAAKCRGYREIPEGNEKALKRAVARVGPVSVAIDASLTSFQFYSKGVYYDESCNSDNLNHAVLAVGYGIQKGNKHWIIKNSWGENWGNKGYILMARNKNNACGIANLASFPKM
# Cathepsin L, sequence (P07711 114-333, species assumed): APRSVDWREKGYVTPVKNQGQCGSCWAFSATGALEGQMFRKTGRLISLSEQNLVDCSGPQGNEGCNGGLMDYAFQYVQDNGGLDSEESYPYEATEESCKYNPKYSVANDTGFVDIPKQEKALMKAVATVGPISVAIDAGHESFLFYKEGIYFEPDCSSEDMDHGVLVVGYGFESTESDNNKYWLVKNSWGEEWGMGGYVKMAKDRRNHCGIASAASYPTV
# Cat S, sequence (P25774 115-331): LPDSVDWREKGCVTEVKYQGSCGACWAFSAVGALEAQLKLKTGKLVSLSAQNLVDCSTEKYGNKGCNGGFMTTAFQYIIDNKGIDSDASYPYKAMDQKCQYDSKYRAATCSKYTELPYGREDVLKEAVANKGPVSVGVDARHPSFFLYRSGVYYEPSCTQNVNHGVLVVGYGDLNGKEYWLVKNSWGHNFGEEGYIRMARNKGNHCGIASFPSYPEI
SMILES,Ki [1] [nM],Ki [2] [µM],IC50 [3] [µM],IC50 [4] [µM],Ki [5] [nM],Ki [6] [nM],Ki [7] [nM]
"CC(C)CC(NC(=O)Cc1ccccc1)C(=O)NC(C)C(=O)C(=O)NC(C)C(=O)NC(C)(C)C(N)=O (stereo not drawn) [PHELIX183, N-(4-((1-((1-amino-2-methyl-1-oxopropan-2-yl)amino)-1-oxopropan-2-yl)amino)-3,4-dioxobutan-2-yl)-4-methyl-2-(2-phenylacetamido)pentanamide]",195,7.74,407,29.1,153,,
"CC(C)CC(NC(=O)OCc1ccccc1)C(=O)NC(C)C(=O)C(=O)NCCC(=O)NC(Cc1cccc(C#N)c1)C(N)=O (stereo not drawn) [PHELIX185, benzyl (1-((4-((3-((1-amino-3-(3-cyanophenyl)-1-oxopropan-2-yl)amino)-3-oxopropyl)amino)-3,4-dioxobutan-2-yl)amino)-4-methyl-1-oxopentan-2-yl)carbamate]",102,2.1,> 10,13.3,68.4,,
"CC(C)CC(NC(=O)OCc1ccccc1)C(=O)NC(C)C(=O)C(=O)N1CCC(C(=O)NC(Cc2ccccc2)C(N)=O)CC1 (stereo not drawn) [PHELIX186, benzyl (1-((4-(4-((1-amino-1-oxo-3-phenylpropan-2-yl)carbamoyl)piperidin-1-yl)-3,4-dioxobutan-2-yl)amino)-4-methyl-1-oxopentan-2-yl)carbamate]",4320,60,> 10,57.5,18100,,
"CC(C)CC(NC(=O)OCc1ccccc1)C(=O)NC(C)C(=O)C(=O)NC(Cc1ccncc1)C(N)=O (stereo not drawn) [PHELIX198, benzyl (1-((4-((1-amino-1-oxo-3-(pyridin-4-yl)propan-2-yl)amino)-3,4-dioxobutan-2-yl)amino)-4-methyl-1-oxopentan-2-yl)carbamate]",33.9,7.3,> 10,4.03,22,,
"C=CCOCC(NC(=O)Cc1ccccc1)C(=O)NC(CC(C)C)C(=O)NC(COCC=C)C(=O)C(=O)NCC(=O)NC(Cc1ccc2ccccc2c1)C(N)=O (stereo not drawn) [PHELIX200, 2-(3-(allyloxy)-2-(2-phenylacetamido)propanamido)-N-(1-(allyloxy)-4-((2-((1-amino-3-(naphthalen-2-yl)-1-oxopropan-2-yl)amino)-2-oxoethyl)amino)-3,4-dioxobutan-2-yl)-4-methylpentanamide] (PhAc-[Ser(allyl)]L[X2]G[2Nal]-NH2; configuration not given here)",1.51,0.0881,> 10,6.4,6.57,,
"C=CCOCC(NC(=O)C(CC(C)C)NC(=O)C(Cc1ccc(OCC=C)cc1)NC(=O)Cc1ccccc1)C(=O)C(=O)NCC(=O)NC(Cc1ccc2ccccc2c1)C(N)=O (stereo not drawn) [PHELIX202, N-(1-(allyloxy)-4-((2-((1-amino-3-(naphthalen-2-yl)-1-oxopropan-2-yl)amino)-2-oxoethyl)amino)-3,4-dioxobutan-2-yl)-2-(3-(4-(allyloxy)phenyl)-2-(2-phenylacetamido)propanamido)-4-methylpentanamide] (PhAc-Y(Allyl)L[X2]G[2Nal]-NH2; configuration not given here)",24,0.692,> 10,> 10,25.3,,
"CC(NC(=O)C(Cc1cccnc1)NC(=O)Cc1ccccc1)C(=O)C(=O)NC(Cc1ccccc1)C(=O)NC(C)(C)C(N)=O (stereo not drawn) [PHELIX211, N-(1-((1-amino-2-methyl-1-oxopropan-2-yl)amino)-1-oxo-3-phenylpropan-2-yl)-2-oxo-3-(2-(2-phenylacetamido)-3-(pyridin-3-yl)propanamido)butanamide]",218,0.532,> 10,209,> 10000,,
"CC(NC(=O)[C@H](Cc1ccccn1)NC(=O)Cc1ccccc1)C(=O)C(=O)N[C@@H](Cc1ccccc1)C(=O)N[C@@H](Cc1ccccc1)C(N)=O (stereo partly drawn) [PHELIX219, N-(1-((1-amino-1-oxo-3-phenylpropan-2-yl)amino)-1-oxo-3-phenylpropan-2-yl)-2-oxo-3-(2-(2-phenylacetamido)-3-(pyridin-2-yl)propanamido)butanamide]",2910,7.52,> 10,> 10,> 10000,,
"CC(NC(=O)C(Cc1ccccc1)NC(=O)c1ccccc1F)C(=O)C(=O)NC(Cc1ccccc1)C(=O)NC(C)(C)C(N)=O (stereo not drawn) [PHELIX224, N-(1-((4-((1-((1-amino-2-methyl-1-oxopropan-2-yl)amino)-1-oxo-3-phenylpropan-2-yl)amino)-3,4-dioxobutan-2-yl)amino)-1-oxo-3-phenylpropan-2-yl)-2-fluorobenzamide]",45.7,0.422,> 10,11,> 10000,33.2,
"Cc1ccccc1CC(=O)NC(Cc1ccccc1)C(=O)NC(C)C(=O)C(=O)NC(Cc1ccccc1)C(=O)NC(C)(C)C(N)=O (stereo not drawn) [PHELIX226, N-(1-((1-amino-2-methyl-1-oxopropan-2-yl)amino)-1-oxo-3-phenylpropan-2-yl)-2-oxo-3-(3-phenyl-2-(2-(o-tolyl)acetamido)propanamido)butanamide]",9.54,0.273,114,5.09,> 10000,,1770
"CC(NC(=O)C(Cc1ccccc1)NC(=O)Cc1ccccc1)C(=O)C(=O)NC(Cc1ccccc1)C(=O)NC(C)(C)C(=O)NCCc1ccccc1 (stereo not drawn) [PHELIX230, N-(1-((2-methyl-1-oxo-1-(phenethylamino)propan-2-yl)amino)-1-oxo-3-phenylpropan-2-yl)-2-oxo-3-(3-phenyl-2-(2-phenylacetamido)propanamido)butanamide]",6.78,0.236,,,> 10000,11.5,310
"CC(NC(=O)C(Cc1ccccc1)NC(=O)Cc1ccccc1)C(=O)C(=O)NC(Cc1ccccc1)C(=O)NC(C)(C)C(=O)NCCN1CCOCC1 (stereo not drawn) [PHELIX231, N-(1-((2-methyl-1-((2-morpholinoethyl)amino)-1-oxopropan-2-yl)amino)-1-oxo-3-phenylpropan-2-yl)-2-oxo-3-(3-phenyl-2-(2-phenylacetamido)propanamido)butanamide]",13.7,2.3,,,3790,200,4890
"CC(NC(=O)C(Cc1ccccc1)NC(=O)Cc1ccccc1)C(=O)C(=O)NC(Cc1cc2ccccc2[nH]1)C(=O)NC(C)(C)C(N)=O (stereo not drawn) [PHELIX232, N-(1-((1-amino-2-methyl-1-oxopropan-2-yl)amino)-3-(1H-indol-2-yl)-1-oxopropan-2-yl)-2-oxo-3-(3-phenyl-2-(2-phenylacetamido)propanamido)butanamide]",213,19.9,,,> 10000,147,1840
"CCC(C)C(NC(=O)C(Cc1ccccc1)NC(=O)Cc1ccccc1)C(=O)C(=O)NC(Cc1ccccc1)C(=O)NC(C)(C)C(N)=O (stereo not drawn) [PHELIX233, N-(1-((1-amino-2-methyl-1-oxopropan-2-yl)amino)-1-oxo-3-phenylpropan-2-yl)-4-methyl-2-oxo-3-(3-phenyl-2-(2-phenylacetamido)propanamido)hexanamide]",8.09,0.223,,,> 10000,2.55,354
"CC(NC(=O)C(Cc1ccccc1)NC(=O)Cc1ccccc1)C(=O)C(=O)NC(CCCNC(=N)N)C(=O)NC(C)(C)C(N)=O (stereo not drawn) [PHELIX234, N-(1-amino-2-methyl-1-oxopropan-2-yl)-5-guanidino-2-(2-oxo-3-(3-phenyl-2-(2-phenylacetamido)propanamido)butanamido)pentanamide]",129,> 10,,,> 10000,78.1,1080
"CC(NC(=O)[C@H](Cc1ccccc1)NC(=O)C(c1ccccc1)c1ccccc1)C(=O)C(=O)N[C@@H](Cc1ccccc1)C(=O)NC(C)(C)C(N)=O (stereo partly drawn) [PHELIX237, N-((S)-1-((1-amino-2-methyl-1-oxopropan-2-yl)amino)-1-oxo-3-phenylpropan-2-yl)-3-((S)-2-(2,2-diphenylacetamido)-3-phenylpropanamido)-2-oxobutanamide]",3.36,0.0211,,,> 10000,0.8,226
"CC(C)CC(NC(=O)OCc1ccccc1)C(=O)NC(C)C(=O)C(=O)NCC(=O)NC(Cc1ccccc1)C(=O)NCCc1ccccc1 (stereo not drawn) [PHELIX238, benzyl (5-benzyl-12,17-dimethyl-4,7,10,11,14-pentaoxo-1-phenyl-3,6,9,13-tetraazaoctadecan-15-yl)carbamate]",3.88,0.313,,,91.1,20.3,27.7
"CC(NC(=O)C(Cc1ccccc1)NC(=O)Cc1ccccc1)C(=O)C(=O)NC(Cc1ccccc1)C(=O)NC(C)(C)C(N)=O (stereo not drawn) [PHELIX249, N-(1-((1-amino-2-methyl-1-oxopropan-2-yl)amino)-1-oxo-3-phenylpropan-2-yl)-2-oxo-3-(3-phenyl-2-(2-phenylacetamido)propanamido)butanamide]",101,0.349,> 30,,> 10000,6.81,736
